Measured values published in PubChem BioAssay (NCI).
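Five compound concentrations were applied to cells in 96-well plates for 48 hours; endpoints were derived by simple linear interpolation of the resulting dose-response curve. TGI marks complete inhibition of growth.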

Columns and labels:
Assay in all cases: growth of human tumour cells (NCI), 48 h
[1] = system: HCT-116 colon
[2] = system: UACC-257 melanoma
[3] = system: HOP-62 NSCLC
[4] = system: EKVX NSCLC
[5] = system: SNB-78 CNS
[6] = system: SF-268 CNS
[7] = system: M19-MEL melanoma
[8] = system: SK-MEL-5 melanoma
[9] = system: SW-620 colon
[10] = system: 786-0 renal
[11] = system: KM20L2 colon

`O=C1CCC23CC(C=CC=C12)n1c(=O)n(-c2ccccc2)c(=O)n13` (stereo not given) showed a TGI [1] of over 100 µM, a TGI [2] of over 100 µM and a TGI [3] of over 100 µM. For the same compound, the TGI [4] was over 100 µM, the TGI [5] was over 100 µM and the TGI [6] was over 100 µM. It also gave a TGI [7] of over 100 µM, a TGI [8] of over 100 µM and a TGI [9] of over 100 µM.

`CC(=O)NC1=C(NCCC(C)C)C(=O)c2ccccc2C1=O` gave a TGI [1] of over 50 µM, a TGI [2] of over 50 µM and a TGI [10] of over 50 µM. The TGI [3] was over 50 µM, the TGI [11] was over 50 µM and the TGI [4] was over 50 µM. It also gave a TGI [5] of over 50 µM, a TGI [6] of over 50 µM and a TGI [7] of over 50 µM. For the same compound, the TGI [8] was over 50 µM and the TGI [9] was over 50 µM.

`COc1ccc(/C=C2\CCC(C)C3=C2NC(=S)NC3c2ccc(OC)c(OC)c2)cc1OC` (stereo not given) gave a TGI [1] of over 31.6 µM, a TGI [2] of over 31.6 µM and a TGI [10] of over 31.6 µM. The TGI [3] was over 100 µM, the TGI [4] was over 31.6 µM and the TGI [6] was over 31.6 µM. For the same compound, the TGI [8] was 28.8 µM and the TGI [9] was over 31.6 µM.

`COc1cc([C@@H]2OCC3C(c4ccc5c(c4)OCO5)OCC32)cc(OC)c1OC` (stereo not given in full) was tested, and the TGI [1] was over 100 µM, the TGI [10] was over 100 µM and the TGI [3] was over 100 µM. For the same compound, the TGI [11] was over 100 µM, the TGI [4] was over 100 µM and the TGI [5] was over 100 µM. The TGI [6] was over 100 µM, the TGI [7] was over 100 µM and the TGI [9] was over 100 µM.

`O=C(Nc1ccc(C2=NCCN2)cc1)c1cncc(C(=O)Nc2ccc(C3=NCCN3)cc2)c1` showed a TGI [1] of over 100 µM, a TGI [2] of over 100 µM and a TGI [3] of over 100 µM. For the same compound, the TGI [11] was over 100 µM, the TGI [4] was over 100 µM and the TGI [5] was over 100 µM. For the same compound, the TGI [6] was over 31.6 µM, the TGI [7] was over 100 µM and the TGI [8] was over 100 µM. For the same compound, the TGI [9] was over 100 µM.

For `CCC[C@@H](O)C[C@@H]1CCC[C@H](C[C@@H](O)CC)N1C`, the TGI [1] was over 100 µM, the TGI [2] was over 100 µM and the TGI [10] was over 100 µM. It also gave a TGI [3] of over 100 µM, a TGI [4] of over 100 µM and a TGI [6] of 45.1 µM. The TGI [8] was over 100 µM and the TGI [9] was over 100 µM.

`C(/c1ccco1)=c1/nc(-c2ccccc2)n2c1nc1ccccc12` showed a TGI [1] of 71.1 µM, a TGI [2] of over 100 µM and a TGI [10] of over 100 µM. It also gave a TGI [3] of over 100 µM, a TGI [4] of 6.07 µM and a TGI [6] of over 100 µM. The TGI [8] was over 100 µM and the TGI [9] was over 100 µM.

`C[C@]12CC[C@H](O)CC1=CC[C@@H]1C2CC[C@]2(C)C(=O)N(N)C(=O)CC12` (stereo not given in full) gave a TGI [1] of over 100 µM, a TGI [2] of over 100 µM and a TGI [10] of over 100 µM. For the same compound, the TGI [3] was over 100 µM, the TGI [11] was over 100 µM and the TGI [4] was over 100 µM. The TGI [5] was over 100 µM, the TGI [6] was over 100 µM and the TGI [7] was over 100 µM. For the same compound, the TGI [8] was over 100 µM and the TGI [9] was over 100 µM.

With `C=C(Br)C(C)(Cl)CCC(Br)C(C)(C)Cl` (stereo not given) the TGI [1] was over 100 µM, the TGI [2] was 85 µM and the TGI [10] was 39.9 µM. The TGI [3] was over 100 µM, the TGI [4] was over 100 µM and the TGI [6] was over 100 µM. For the same compound, the TGI [8] was over 100 µM and the TGI [9] was 94.7 µM.

In the case of `CN1CCN([C@H]2C[C@H]3[C@@H]4CC=C5C[C@@H](O)CC[C@]5(C)[C@H]4CC[C@]3(C)C2=O)CC1`, the TGI [1] is reported as over 100 µM, the TGI [2] is reported as over 100 µM and the TGI [10] is reported as over 100 µM. It also gave a TGI [3] of over 100 µM, a TGI [4] of over 100 µM and a TGI [6] of over 100 µM. It also gave a TGI [8] of over 100 µM and a TGI [9] of over 100 µM.

`CCCN=C1CCN(Cc2ccccc2)c2ccccc2N1` was tested, and the TGI [1] was over 100 µM, the TGI [2] was 29.2 µM and the TGI [10] was over 100 µM. It also gave a TGI [3] of over 100 µM, a TGI [4] of over 100 µM and a TGI [6] of 36.8 µM. It also gave a TGI [8] of 28.2 µM and a TGI [9] of over 100 µM.

In the case of `CC(C)C1/C(=N/O)CC(c2ccccc2)N(N=O)C1c1ccccc1` (stereo not given), the TGI [1] is reported as 85.7 µM, the TGI [2] is reported as over 100 µM and the TGI [10] is reported as over 100 µM. It also gave a TGI [3] of over 100 µM, a TGI [4] of 73.5 µM and a TGI [6] of over 100 µM. It also gave a TGI [8] of 95.9 µM and a TGI [9] of over 100 µM.

With `O=C1CCC(=O)N1n1c(Cc2ccccc2)n[nH]c1=O` the TGI [1] was over 100 µM, the TGI [2] was over 100 µM and the TGI [10] was over 100 µM. The TGI [3] was over 100 µM, the TGI [4] was over 100 µM and the TGI [6] was over 100 µM. It also gave a TGI [8] of over 100 µM and a TGI [9] of over 100 µM.

For `Clc1cc(OC2C3CC4CC(C3)CC2C4)nc(Cl)n1` (stereo not given), the TGI [1] was 27.5 µM, the TGI [2] was 27.4 µM and the TGI [10] was 33.5 µM. The TGI [3] was 67.1 µM, the TGI [4] was 29.6 µM and the TGI [6] was 49.1 µM. The TGI [8] was 32.1 µM and the TGI [9] was 29 µM.

In the case of `CC1=CC2C(O1)C1C(=O)C=CC(=O)C1=CC2[N+](=O)[O-]` (stereo not given), the TGI [1] is reported as 31.8 µM, the TGI [2] is reported as 33.7 µM and the TGI [10] is reported as 27.6 µM. The TGI [3] was 48.7 µM, the TGI [4] was 33.8 µM and the TGI [6] was 29.3 µM. For the same compound, the TGI [8] was 38.2 µM and the TGI [9] was over 24.3 µM.
